Ten molecules from patent US7297714B2, “Inhibitors of cathepsin S” (IRM LLC, priority 2003, dated 2007) can be followed below.

Common to all, as to type: biochemical
One assay deals with Cathepsin S (Homo sapiens, UniProt P25774). The assay is described as follows: Cathepsin S inhibition assay (fluorogenic peptide substrate). To be noted: Cathepsin S inhibition constant; pH5.5; read-out: Ki Cat. S. An excerpt: “Inhibition constant”, Ki, is the dissociation constant of the enzyme-inhibitor complex, or the reciprocal of the binding affinity of the inhibitor to the enzyme. For classical inhibition the value of Ki is much greater than the enzyme concentration and the Ki can be measured by monitoring the rate of reaction for a competitive substrate at multiple inhibitor concentrations. The inhibited rates are then fit by nonlinear regression to the following equation: […]
The assumption being made for the classical inhibition described above is that the free inhibitor concentration is equal to the total inhibitor concentration. For inhibitors that have Ki's that are approximately equal to the enzyme concentration [E], the assumption that the free inhibitor concentration is equal to the total inhibitor concentration is no longer valid and an alternative equation has to be fit for determination of the apparent inhibition constant, Ki^app using described methods (Kuzmic, P., K. C. Elrod, et al., Anal Biochem 2000, 286(1), 45-50):
The optimal substrate for cathepsin S, acetyl-histidine-proline-valine-lysine-amino carbamoyl coumarin, was identified from screening a combinatorial library of fluorogenic peptide substrates (Harris, J. L., B. J. Backes, et al., Proc Natl Acad Sci U S A 2000, 97(14), 7754-9). Kinetic measurements are performed in a total reaction volume of 30 μl in 384-well microtiter plates. Cathepsin S, at a final concentration of 0.3-3 nM (active site), is incubated with the compounds at twelve varying concentrations in a buffer containing 100 mM NaAc (pH5.5), 1 mM EDTA, 100 mM NaCl, 0.01% Brij-35 for 20 minutes at room temperature. Control reactions in the absence of inhibitor are performed in replicates of 24. The reactions are initiated by adding the substrate, acetyl-histidine-proline-valine-lysine-amino carbamoyl coumarin, to a final concentration of 50 μM. The rate of substrate hydrolysis is measured by monitoring the increase in fluorescence at an excitation wavelength of 380 nm and an emission wavelength of 450 nm that results from cleavage of the aniline bond in the substrate by the enzyme. The apparent inhibition constants for the compounds are determined from the enzyme progress curves (Kuzmic, P., K. C. Elrod, et al., Anal Biochem 2000, 286(1), 45-50) and are then used to calculate the inhibition constants for competitive inhibitors.

The target of a further assay is T1, Caspase 3 (Homo sapiens, UniProt P42574).
T1 sequence (P42574 29-175 limits assumed): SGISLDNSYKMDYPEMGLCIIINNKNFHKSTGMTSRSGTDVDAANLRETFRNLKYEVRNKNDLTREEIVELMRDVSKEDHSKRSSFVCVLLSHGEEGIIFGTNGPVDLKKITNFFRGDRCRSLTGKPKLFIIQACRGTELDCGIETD
T1 sequence (P42574 176-277 limits assumed): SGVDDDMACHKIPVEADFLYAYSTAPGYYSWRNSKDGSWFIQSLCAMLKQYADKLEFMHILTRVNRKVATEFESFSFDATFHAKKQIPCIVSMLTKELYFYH
Briefly: Inhibition Assay for Caspase 3. To be noted: Caspase-3 inhibition constant; pH7.4; read-out: Ki Cas-3. Here is the method: (§1) The widely used substrate for caspase 3, acetyl-aspartate-glutamate-valine-aspartic acid-amino carbamoyl coumarin, was used. Kinetic measurements are performed in a total reaction volume of 30 μl in 384-well microtiter plates. Caspase 3, at a final concentration of 0.2-1 nM (active site), is incubated with the compounds at twelve varying concentrations in a buffer containing 20 mM Hepes (pH7.4), 1 mM EDTA, 100 mM NaCl, 0.1% CHAPS, 10% sucrose, 10 mM DTT for 20 minutes at room temperature. Control reactions in the absence of inhibitor are performed in replicates of 12. The reactions are initiated by adding the substrate to a final concentration of 2 μM. The rate of substrate hydrolysis is measured by monitoring the increase in fluorescence at an excitation wavelength of 380 nm and an emission wavelength of 450 nm that results from cleavage of the aniline bond in the substrate by the enzyme. The apparent inhibition constants for the compounds are determined from the enzyme progress curves (Kuzmic, Elrod et al. 2000) and are then used to calculate the inhibition constants for competitive inhibitors (Km=9.71 μM).

In the next assay the target is Caspase 8 (Homo sapiens, UniProt Q14790). The assay is described as follows: Inhibition Assay for Caspase 8. Particulars: Caspase-8 inhibition constant; pH 7.4; read-out: Ki Cas-8. Here is the method: as §1, with “8,” for “3,”, “(pH 7.4),” for “(pH7.4),”, “(Km=25.7” for “(Km=9.71”
Chain of Caspase 8 (Q14790 217-374 limits assumed, species assumed): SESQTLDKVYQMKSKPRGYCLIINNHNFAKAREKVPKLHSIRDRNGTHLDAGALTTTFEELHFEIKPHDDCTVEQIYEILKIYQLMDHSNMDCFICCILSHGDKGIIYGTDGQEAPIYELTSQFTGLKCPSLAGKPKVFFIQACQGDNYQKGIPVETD
Chain of Caspase 8 (Q14790 385-479 limits assumed, species assumed): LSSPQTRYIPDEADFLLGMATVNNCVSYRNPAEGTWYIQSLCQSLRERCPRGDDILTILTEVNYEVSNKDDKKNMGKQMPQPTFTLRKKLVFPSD

Chain of Cathepsin S (P25774 115-331, species assumed): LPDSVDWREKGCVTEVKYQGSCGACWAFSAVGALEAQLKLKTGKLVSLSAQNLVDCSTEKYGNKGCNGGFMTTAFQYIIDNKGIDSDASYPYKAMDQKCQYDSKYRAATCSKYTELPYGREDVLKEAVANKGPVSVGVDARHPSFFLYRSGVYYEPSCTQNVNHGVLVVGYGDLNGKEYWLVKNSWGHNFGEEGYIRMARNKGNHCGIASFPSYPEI

Consider `O=C1C[C@H](NC(=O)[C@H](CC2CCCC2)NC(=O)N2CCOCC2)C(O)O1` (stereo partly drawn) [Example 2, (3S)-{3-Cyclopentyl-(2S)-[(morpholine-4-carbonyl)-amino]-propionylamino}-4-oxo-butyric acid], for which the values for the Ki on Cathepsin S, on Caspase 3 and on Caspase 8 were under 0.1 µM, over 10 µM and over 10 µM, respectively.
`O=C[C@H](CC(=O)O)NC(=O)[C@@H](CC(=O)N1CCOCC1)CC1CCCC1` [Example 4, (3S)-[(2R)-Cyclopentylmethyl-4-morpholin-4-yl-4-oxo-butyrylamino]-4-oxo-butyric acid]: the values for the Ki at Cathepsin S, at Caspase 3 and on Caspase 8 were under 0.1 µM, over 10 µM and over 10 µM, respectively.
Regarding `O=C1C[C@H](NC(=O)[C@H](CC2CCCC2)NS(=O)(=O)c2cccc(OC(F)(F)F)c2)C(O)O1` (stereo partly drawn) [Example 8, (3S)-[3-Cyclopentyl-(2S)-(3-trifluoromethoxy-benzenesulfonylamino)-propionylamino]-4-oxo-butyric acid], the Ki at Cathepsin S was under 0.1 µM; on Caspase 3, over 1 µM; at Caspase 8 it was over 10 µM.
For `O=C1C[C@H](NC(=O)O[C@@H](CC2CCCCC2)C(=O)N2CCOCC2)C(O)O1` (stereo partly drawn) [Example 10, (3S)-[2-cyclohexyl-(1S)-(morpholin-4-carbonyl)-ethoxycarbonylamino]-4-oxo-butyric acid], the Ki on Cathepsin S was under 0.1 µM; at Caspase 3, over 100 µM; at Caspase 8 it was over 100 µM.
Take `O=C1C[C@H](NC(=O)O[C@@H](CC2CCCC2)Cn2cnc3cc(Cl)c(Cl)cc32)C(O)O1` (stereo partly drawn) [Example 5, (3S)-[(1S)-Cyclopentylmethyl-2-(5,6-dichloro-benzoimidazol-1-yl)-ethoxycarbonylamino]-4-oxo-butyric acid]: the inhibition constant (Ki) is under 0.1 µM on Cathepsin S, over 10 µM at Caspase 3 and over 10 µM at Caspase 8.
For the molecule `O=C1C[C@H](NC(=O)[C@@H](CC(=O)N2CCOCC2)CC2CCCCC2)C(O)O1` (stereo partly drawn) [Example 6, (3S)-{(2R)-Cyclohexylmethyl-4-morpholin-4-yl-4-oxo-butyrylamino}-4-oxo-butyric acid], the Ki is under 0.1 µM at Cathepsin S, over 10 µM at Caspase 3 and over 10 µM on Caspase 8.
With `CC(C)(C)C[C@H](OC(=O)N[C@H]1CC(=O)OC1O)C(=O)N1CCOCC1` (stereo partly drawn) [Example 9, (3S)-[3,3-Dimethyl-(1S)-(morpholine-4-carbonyl)-butoxycarbonylamino]-4-oxo-butyric acid], the values for the Ki at Cathepsin S, at Caspase 3 and at Caspase 8 were under 0.1 µM, over 100 µM and over 100 µM, respectively.
For `O=C1C[C@H](NC(=O)[C@H](CC2CCCC2)NC(=O)c2ccc(-c3cccc(F)c3)o2)C(O)O1` (stereo partly drawn) [Example 1, (3S)-(3-Cyclopentyl-(2S)-{[5-(3-fluoro-phenyl)-furan-2-carbonyl]-amino}-propionylamino)-4-oxo-butyric acid], the Ki on Cathepsin S was under 0.1 µM; at Caspase 3, over 1 µM; at Caspase 8, over 1 µM.
With `O=C1C[C@H](NC(=O)[C@H](CC2CCCCC2)OC(=O)N2CCOCC2)C(O)O1` (stereo partly drawn) [Example 3, (3S)-{3-cyclohexyl-(2S)-(morpholine-4-carbonyloxy)-propionylamino}-4-oxo-butyric acid], the values for the Ki on Cathepsin S, on Caspase 3 and at Caspase 8 were under 0.1 µM, over 10 µM and over 10 µM, respectively.
Consider `O=C1C[C@H](NC(=O)[C@H](CC2CCCCC2)NS(=O)(=O)c2cccc(OC(F)(F)F)c2)C(O)O1` (stereo partly drawn) [Example 7, (3S)-[3-Cyclohexyl-(2S)-(3-trifluoromethoxy-benzenesulfonylamino)-propionylamino]-4-oxo-butyric acid], for which the results for the Ki at Cathepsin S, at Caspase 3 and at Caspase 8 were under 0.1 µM, over 10 µM and over 10 µM, respectively.

The Ki is a measure of affinity in units of concentration, obtained from inhibition or displacement.
